According to article PMC11466185, “Mechanisms and efficacy of small molecule latency-promoting agents to inhibit HIV reactivation ex vivo” (JCI Insight, 2024):
Read-outs that look alike come from different tables or passages of the source.

Assays:
[1] = tested on: HIV transcripts (PolyA, TatRev); assay: Dose-response curves of LPAs: polyadenylated and multiply spliced HIV transcripts 24 hours after activation; assay type: cell-based; settings: for IC50: Human immunodeficiency virus 1, PBMC, 24 h, PBMCs from 1 participant per drug; for MS Tat-Rev (dose-response) / PolyA (dose-response): 24 hours, 1 participant per drug
Experimental: The IC50 was determined based on the reduction in completed (PolyA) as well as multiply spliced (TatRev) HIV transcripts relative to activated DMSO (Table 1).
Figure 2 Dose-response curves of LPAs. Dose-response curves for each drug were generated in PBMCs from 1 ART-suppressed study participant per drug. PBMCs were aliquoted into wells at 6 × 10^6 cells/well, activated, and cultured with antiretrovirals in the presence of DMSO alone (no drug) or varying concentrations of individual drugs in DMSO. After 24 hours, the levels of polyadenylated and multiply spliced HIV transcripts were quantified by RT-ddPCR, normalized to 1 μg of total cellular RNA, and expressed as a percentage of the activated DMSO control (% of activated DMSO).

[2] = tested on: HIV transcripts (TAR, LLTR, Pol, PolyA, TatRev); assay: Latency reversal assay: cell-associated HIV transcripts (RT-ddPCR) 24 hours after anti-CD3/CD28 activation of PBMCs from ART-suppressed PWH; assay type: cell-based
Procedure, shortened: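 PBMCs from ART-suppressed people with HIV (6 × 10^6 cells/well) treated with drug in DMSO, activated with anti-CD3/CD28 beads with antiretrovirals, harvested after 24 hours. TAR, LLTR, Pol, PolyA and TatRev transcripts measured by RT-ddPCR, normalized to 1 μg total RNA, expressed as % of activated DMSO control.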

PBMCs = assay: Cell viability by trypan blue staining after 24 hours; assay type: cell-based, human; design: key to Viability (dose-response): % of activated DMSO control viability; settings: for Viability (dose-response): 1 participant per drug, in % (unit assumed)
Procedure, shortened: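 PBMCs from ART-suppressed donors at 6 × 10^6 cells/well were activated with CD3/28 beads and cultured with antiretrovirals plus drug in DMSO. Viability counted by trypan blue after 24 hours. Values were normalized to the activated DMSO control.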

[3] = reduction in PolyA HIV transcripts relative to activated DMSO, read-out: Completed (PolyA) IC50
[4] = reduction in TatRev HIV transcripts relative to activated DMSO, read-out: Multiply spliced (TatRev) IC50

`N#CC[C@H](C1CCCC1)n1cc(-c2ncnc3[nH]ccc23)cn1` [ruxolitinib] was tested, and the IC50 [1, 3] was 270 nM, the IC50 [1, 4] was 260 nM and the “MS Tat-Rev (dose-response)” value ([1]; dose 0.4 µM) was 41.24 % of activated DMSO. The “PolyA (dose-response)” value ([1]; dose 0.4 µM) was 33.83 % of activated DMSO, the “MS Tat-Rev (dose-response)” value ([1]; dose 1 µM) was 15.99 % of activated DMSO and the “PolyA (dose-response)” value ([1]; dose 1 µM) was 29.83 % of activated DMSO. For the same compound, the “MS Tat-Rev (dose-response)” value ([1]; dose 4 µM) was 8.19 % of activated DMSO, the “PolyA (dose-response)” value ([1]; dose 4 µM) was 7.04 % of activated DMSO and the “MS Tat-Rev (dose-response)” value ([1]; dose 10 µM) was 4.34 % of activated DMSO. The “PolyA (dose-response)” value ([1]; dose 10 µM) was 4.66 % of activated DMSO, the mrna remaining at 4 µM ([2]; Human immunodeficiency virus 1, PBMC, 24 h, 4μM, 24 h after αCD3/28 activation, each column one participant, read-out: TAR HIV transcripts (DMSO+αCD3/28 = 100)) was 34.5% and the “Viability (dose-response)” value (PBMCs; dose 0.4 µM) was 90.244. For the same compound, the “Viability (dose-response)” value (PBMCs; dose 1 µM) was 87.333, the “Viability (dose-response)” value (PBMCs; dose 4 µM) was 92.053 and the “Viability (dose-response)” value (PBMCs; dose 10 µM) was 89.32. For the same compound, the “Viability (Fig 1A)” value (PBMCs; study participant 150a) was 95.89 % of activated DMSO and the “Viability (Fig 1A)” value (PBMCs; study participant 152) was 102.01 % of activated DMSO.

With `CC(=O)N[C@@H]1CCC[C@H](C(=O)Nc2cc(-c3cnn4c3CC(C)(C)C4)c(Cl)cn2)C1` [AZD4573] the IC50 [1, 3] was 0.28 nM, the IC50 [1, 4] was 0.23 nM and the “MS Tat-Rev (dose-response)” value ([1]; dose 1 nM) was 18.92 % of activated DMSO. For the same compound, the “PolyA (dose-response)” value ([1]; dose 1 nM) was 20.96 % of activated DMSO, the “MS Tat-Rev (dose-response)” value ([1]; dose 8 nM) was 1.11 % of activated DMSO and the “PolyA (dose-response)” value ([1]; dose 8 nM) was 5.23 % of activated DMSO. The “MS Tat-Rev (dose-response)” value ([1]; dose 20 nM) was 0.18 % of activated DMSO, the “PolyA (dose-response)” value ([1]; dose 20 nM) was 4.94 % of activated DMSO and the “HIV transcriptional completion, ratio PolyA/LLTR” value ([2]; 24 hours, compared with activated DMSO, Figure 3C) was “reduced”. For the same compound, the “Viability (dose-response)” value (PBMCs; dose 1 nM) was 74.75, the “Viability (dose-response)” value (PBMCs; dose 8 nM) was 63.616 and the “Viability (dose-response)” value (PBMCs; dose 20 nM) was 68.369. The “Viability (Fig 1A)” value (PBMCs; study participant 150a) was 106.07 % of activated DMSO and the “Viability (Fig 1A)” value (PBMCs; study participant 152) was 97.45 % of activated DMSO.
